Activity calls are given as the source filed them. No rule for the calls is given here.
Tested on: CCRIS mutagenicity, Ames/micronucleus/aberration tests
Experiment: CCRIS mutagenicity studies
[1] = Test System: AMES SALMONELLA TYPHIMURIUM, Strain/Indicator: TA98, Metabolic Activation: NONE, Method: STANDARD PLATE
[2] = Test System: AMES SALMONELLA TYPHIMURIUM, Strain/Indicator: TA100, Metabolic Activation: NONE, Method: STANDARD PLATE

**Q.** `CN(C)C(=O)c1nc(CNC(=O)CN)n(-c2ccc(Cl)cc2C(=O)c2ccccc2Cl)n1` was tested. Which mutagenic call [1] did it give?
**A.** Its mutagenic call is “inactive; negative”.

**Q.** And the mutagenic call (Test System: AMES SALMONELLA TYPHIMURIUM, Strain/Indicator: TA98, Metabolic Activation: RAT, LIVER, S-9, AROCLOR 1254, Method: STANDARD PLATE)?
**A.** The mutagenic call was “inactive; negative”.

**Q.** And the mutagenic call [2]?
**A.** Its mutagenic call is “inactive; negative”.

**Q.** What about the mutagenic call (Test System: AMES SALMONELLA TYPHIMURIUM, Strain/Indicator: TA100, Metabolic Activation: RAT, LIVER, S-9, AROCLOR 1254, Method: STANDARD PLATE) of the same compound?
**A.** Its mutagenic call is “inactive; negative”.

**Q.** What about the mutagenic call (Test System: AMES SALMONELLA TYPHIMURIUM, Strain/Indicator: TA102, Metabolic Activation: NONE, Method: STANDARD PLATE) of the same compound?
**A.** The mutagenic call was “inactive; negative”.

**Q.** What about the mutagenic call (Test System: AMES SALMONELLA TYPHIMURIUM, Strain/Indicator: TA102, Metabolic Activation: RAT, LIVER, S-9, AROCLOR 1254, Method: STANDARD PLATE) of the same compound?
**A.** Its mutagenic call is “inactive; negative”.

**Q.** What about the mutagenic call (Test System: AMES SALMONELLA TYPHIMURIUM, Strain/Indicator: TA1535, Metabolic Activation: NONE, Method: STANDARD PLATE) of the same compound?
**A.** The mutagenic call was “inactive; negative”.

**Q.** What about the mutagenic call (Test System: AMES SALMONELLA TYPHIMURIUM, Strain/Indicator: TA1535, Metabolic Activation: RAT, LIVER, S-9, AROCLOR 1254, Method: STANDARD PLATE) of the same compound?
**A.** The mutagenic call was “inactive; negative”.

**Q.** What about the mutagenic call (Test System: AMES SALMONELLA TYPHIMURIUM, Strain/Indicator: TA1537, Metabolic Activation: NONE, Method: STANDARD PLATE) of the same compound?
**A.** The mutagenic call was “inactive; negative”.

**Q.** And the mutagenic call (Test System: AMES SALMONELLA TYPHIMURIUM, Strain/Indicator: TA1537, Metabolic Activation: RAT, LIVER, S-9, AROCLOR 1254, Method: STANDARD PLATE)?
**A.** Its mutagenic call is “inactive; negative”.

**Q.** What about the mutagenic call (Test System: E. COLI, Strain/Indicator: WP2 UVRA, Metabolic Activation: NONE, Method: STANDARD PLATE) of the same compound?
**A.** The mutagenic call was “inactive; negative”.

**Q.** What about the mutagenic call (Test System: E. COLI, Strain/Indicator: WP2 UVRA, Metabolic Activation: RAT, LIVER, S-9, AROCLOR 1254, Method: STANDARD PLATE) of the same compound?
**A.** Its mutagenic call is “inactive; negative”.

**Q.** `Cc1nc2c(cc(C)c3ccc4ccc(O)cc4c32)[nH]1` was tested. Which mutagenic call (Test System: AMES SALMONELLA TYPHIMURIUM, Strain/Indicator: TA98, Metabolic Activation: RAT, LIVER, S-9, AROCLOR, Method: STANDARD PLATE) did it give?
**A.** The mutagenic call was “active; positive”.

**Q.** For `COC(=O)Nc1cccc(OC(=O)Nc2cccc(C)c2)c1`, which mutagenic call (Test System: AMES SALMONELLA TYPHIMURIUM, Strain/Indicator: TA97, Metabolic Activation: HAMSTER, LIVER, S-9, AROCLOR 1254 (30%), Method: PREINCUBATION) is on record?
**A.** The mutagenic call was “inactive; negative”.

**Q.** What about the mutagenic call (Test System: AMES SALMONELLA TYPHIMURIUM, Strain/Indicator: TA97, Metabolic Activation: NONE, Method: PREINCUBATION) of the same compound?
**A.** Its mutagenic call is “inactive; negative”.

**Q.** And the mutagenic call (Test System: AMES SALMONELLA TYPHIMURIUM, Strain/Indicator: TA97, Metabolic Activation: RAT, LIVER, S-9, AROCLOR 1254 (30%), Method: PREINCUBATION)?
**A.** Its mutagenic call is “inactive; negative”.

**Q.** And the mutagenic call (Test System: AMES SALMONELLA TYPHIMURIUM, Strain/Indicator: TA98, Metabolic Activation: HAMSTER, LIVER, S-9, AROCLOR 1254 (10 OR 30%), Method: PREINCUBATION)?
**A.** Its mutagenic call is “inactive; negative”.

**Q.** And the mutagenic call (Test System: AMES SALMONELLA TYPHIMURIUM, Strain/Indicator: TA98, Metabolic Activation: HAMSTER, LIVER, S-9, AROCLOR 1254 (30%), Method: PREINCUBATION)?
**A.** The mutagenic call was “active; positive”.

**Q.** And the mutagenic call (Test System: AMES SALMONELLA TYPHIMURIUM, Strain/Indicator: TA98, Metabolic Activation: NONE, Method: PREINCUBATION)?
**A.** The mutagenic call was “inactive; negative”.

**Q.** And the mutagenic call (Test System: AMES SALMONELLA TYPHIMURIUM, Strain/Indicator: TA98, Metabolic Activation: RAT, LIVER, S-9, AROCLOR 1254 (30%), Method: PREINCUBATION)?
**A.** Its mutagenic call is “inactive; negative”.

**Q.** And the mutagenic call (Test System: AMES SALMONELLA TYPHIMURIUM, Strain/Indicator: TA100, Metabolic Activation: HAMSTER, LIVER, S-9, AROCLOR 1254 (30%), Method: PREINCUBATION)?
**A.** The mutagenic call was “inactive; negative”.

**Q.** What about the mutagenic call (Test System: AMES SALMONELLA TYPHIMURIUM, Strain/Indicator: TA100, Metabolic Activation: NONE, Method: PREINCUBATION) of the same compound?
**A.** The mutagenic call was “inactive; negative”.

**Q.** What about the mutagenic call (Test System: AMES SALMONELLA TYPHIMURIUM, Strain/Indicator: TA100, Metabolic Activation: RAT, LIVER, S-9, AROCLOR 1254 (30%), Method: PREINCUBATION) of the same compound?
**A.** Its mutagenic call is “inactive; negative”.

**Q.** And the mutagenic call (Test System: AMES SALMONELLA TYPHIMURIUM, Strain/Indicator: TA1538, Metabolic Activation: HAMSTER, LIVER, S-9, AROCLOR 1254 (10%), Method: PREINCUBATION)?
**A.** Its mutagenic call is “inactive; negative”.

**Q.** And the mutagenic call (Test System: AMES SALMONELLA TYPHIMURIUM, Strain/Indicator: TA1538, Metabolic Activation: HAMSTER, LIVER, S-9, AROCLOR 1254 (30%), Method: PREINCUBATION)?
**A.** The mutagenic call was “active; positive”.

**Q.** And the mutagenic call (Test System: AMES SALMONELLA TYPHIMURIUM, Strain/Indicator: TA1538, Metabolic Activation: NONE, Method: PREINCUBATION)?
**A.** Its mutagenic call is “inactive; negative”.

**Q.** What about the mutagenic call (Test System: AMES SALMONELLA TYPHIMURIUM, Strain/Indicator: TA1538, Metabolic Activation: RAT, LIVER, S-9, AROCLOR 1254 (30%), Method: PREINCUBATION) of the same compound?
**A.** The mutagenic call was “inactive; negative”.

**Q.** For `O=C(Nc1ccccc1F)c1csc([N+](=O)[O-])c1`, which mutagenic call [1] is on record?
**A.** Its mutagenic call is “active; positive”.

**Q.** And the mutagenic call [2]?
**A.** The mutagenic call was “active; positive”.

**Q.** Which mutagenic call (Test System: AMES SALMONELLA TYPHIMURIUM, Strain/Indicator: TA100, Metabolic Activation: RAT LIVER S-9, AROCLOR 1254, Method: PREINCUBATION) does the source give for `C=C(C=O)CCC` here?
**A.** Its mutagenic call is “active; positive”.

**Q.** What about the mutagenic call (Test System: AMES SALMONELLA TYPHIMURIUM, Strain/Indicator: TA100, Metabolic Activation: RAT, LIVER, S-9, AROCLOR 1254, Method: PREINCUBATION) of the same compound?
**A.** Its mutagenic call is “active; positive”.

**Q.** For `Clc1ccc(-c2nc3ccccc3o2)cc1`, which mutagenic call [1] is on record?
**A.** Its mutagenic call is “inactive; negative”.

**Q.** What about the mutagenic call (Test System: AMES SALMONELLA TYPHIMURIUM, Strain/Indicator: TA98, Metabolic Activation: S-9, Method: STANDARD PLATE) of the same compound?
**A.** The mutagenic call was “inactive; negative”.
